TGI data for 21 compounds are collected here from PubChem BioAssay (NCI).

Test systems include MDA-N; DLD-1 colon; DMS 114 small cell lung; DMS 273 small cell lung; LXFL 529 NSCLC; M19-MEL melanoma; RXF-631 renal; SNB-78 CNS; XF 498 CNS.
Common to all, as to test: NCI tumour cell line growth inhibition, 48 h

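Test compounds were applied to cells in 96-well plates for 48 hours at 5 doses. TGI: concentration producing complete growth inhibition.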 Bounds are passed on as bounds.

With `C/C=C\C(C)=C/C(C)C(=O)CC(O)CC1CC(=O)NC(=O)C1` (stereo unspecified), the TGI with MDA-N is above 100 µM.

Turning to `CCN(CC)CC(C(=O)Nc1c(C)cccc1C)/C(C)=N/NC(N)=S` (stereo unspecified), the TGI in the test on DLD-1 colon, with DMS 114 small cell lung, in the test with DMS 273 small cell lung, in the test on LXFL 529 NSCLC, with M19-MEL melanoma and in the test with RXF-631 renal was above 100 µM in each case. In addition, the TGI with SNB-78 CNS and in the test with XF 498 CNS was above 100 µM each time.

Consider `CCc1cccc(C(C)C)c1C1C(=O)C(=O)N(c2nc3ccccc3s2)C(=O)C1=O`, for which the TGI with DLD-1 colon, in the test on DMS 114 small cell lung, with DMS 273 small cell lung, in the test with LXFL 529 NSCLC, in the test on M19-MEL melanoma and in the test with RXF-631 renal was above 100 µM each time. Further, the TGI in the test with SNB-78 CNS was above 100 µM.

In the case of `Nc1n[nH]c(=O)c2c1c(Br)cn2C1OC(CO)C(O)C1O` (stereo unspecified), the TGI in the test on DLD-1 colon is above 25.3 µM; in the test with DMS 114 small cell lung it was 17.8 µM; in the test with DMS 273 small cell lung, above 41.2 µM; in the test with LXFL 529 NSCLC, above 100 µM; in the test on M19-MEL melanoma it was 40.2 µM; in the test on RXF-631 renal, 6.59 µM. The compound further showed a TGI in the test with SNB-78 CNS above 80.5 µM.

On to `Cc1nc2c(=O)n(C)c(=O)nc-2n(-c2ccc(Cl)cc2)c1C`, for which the TGI in the test with DLD-1 colon, in the test with DMS 114 small cell lung, in the test on DMS 273 small cell lung, in the test on LXFL 529 NSCLC, with M19-MEL melanoma and in the test on RXF-631 renal was above 100 µM each time. Besides, the TGI with SNB-78 CNS and with XF 498 CNS was above 100 µM throughout.

`O=C1c2ccccc2CC1C1(O)C(=O)Nc2c(Cl)cc(Cl)cc21` (stereo unspecified): the TGI in the test on DLD-1 colon is above 100 µM; in the test with DMS 114 small cell lung, 68.8 µM; with DMS 273 small cell lung, above 100 µM; in the test on LXFL 529 NSCLC it was above 100 µM; with RXF-631 renal, above 100 µM; with SNB-78 CNS it was above 100 µM. Moreover, in the test on XF 498 CNS, the TGI was above 100 µM.

With `COC(=O)c1c(OC(=O)c2ccccc2)noc1CC(=O)OC1C=CCCC1` (stereo unspecified), the TGI in the test with DLD-1 colon, in the test with DMS 114 small cell lung, in the test with DMS 273 small cell lung, in the test on LXFL 529 NSCLC and with SNB-78 CNS was above 100 µM in each case.

The compound `Cn1c(N)c(N=Nc2ccc(S(N)(=O)=O)cc2)c(=O)n(C)c1=O` returned a TGI in the test on MDA-N above 100 µM.

Take `CC(=O)OC12CCCCC1C1(CCCC1)NC2=O` (stereo unspecified): the TGI in the test on DLD-1 colon, with DMS 114 small cell lung, with LXFL 529 NSCLC, in the test on M19-MEL melanoma, in the test with SNB-78 CNS and in the test with XF 498 CNS was above 100 µM each time.

On to `Cc1ccc(S(=O)(=O)c2ccccn2)cc1`, for which the TGI with DLD-1 colon, in the test with DMS 114 small cell lung, with DMS 273 small cell lung, in the test with LXFL 529 NSCLC, in the test on M19-MEL melanoma and with RXF-631 renal was above 100 µM throughout. Further, the TGI with SNB-78 CNS and with XF 498 CNS was above 100 µM throughout.

As to `CC(C)(O)C1CC(=O)C(C)(C2C(O)CC3(C)C4CC=C5C(CCC(O)C5(C)C)C4(C)C(=O)CC23C)O1` (stereo unspecified), in the test with MDA-N, the TGI was above 100 µM.

For `Cc1nn(C(=O)CC(=O)Nc2ccccc2Cl)c(C)c1N=Nc1ccccc1Cl`, the TGI in the test on DLD-1 colon, in the test on DMS 114 small cell lung, with DMS 273 small cell lung, in the test with LXFL 529 NSCLC, in the test on M19-MEL melanoma and in the test with RXF-631 renal was above 100 µM each time. Also, the TGI with SNB-78 CNS and in the test on XF 498 CNS was above 100 µM in each case.

In the case of `O=S(O)CCCSSCCCCSSCCCS(=O)O`, the TGI with DLD-1 colon, in the test on DMS 114 small cell lung, with DMS 273 small cell lung, in the test with LXFL 529 NSCLC, with M19-MEL melanoma and in the test on SNB-78 CNS was above 100 µM throughout. The same compound came in with a TGI with XF 498 CNS above 100 µM.

Take `CC/C(=C(\c1ccccc1)c1ccc(OCC[N+](C)(C)C)cc1)c1ccccc1`: the TGI in the test with DLD-1 colon amounted to 37.9 µM; in the test with DMS 114 small cell lung it was 21.7 µM; in the test with DMS 273 small cell lung, 19.9 µM; in the test on LXFL 529 NSCLC it was 24.6 µM; in the test with M19-MEL melanoma, 26.2 µM; with RXF-631 renal, 41 µM. In addition, the TGI in the test with SNB-78 CNS is 34.3 µM.

With `CCCCCC1C2C(=O)NC(=O)C1C(=O)NC2=O` (stereo unspecified), the TGI in the test with DLD-1 colon, in the test on DMS 114 small cell lung, in the test with DMS 273 small cell lung, in the test on LXFL 529 NSCLC, with M19-MEL melanoma and in the test on XF 498 CNS was above 100 µM in each case.

Compound `O=C1c2cccc3cc4ccccc4c(c23)C(=O)N1CCCNCCNCCCN1C(=O)c2cccc3cc4ccccc4c(c23)C1=O` had a TGI with MDA-N of 1.82 µM.

With `Cc1ccc(S(=O)(=O)NC2(C=O)CCC(C(C)(C)C)CC2)cc1` (stereo unspecified), the TGI with DLD-1 colon is above 100 µM; with DMS 114 small cell lung it was 62.8 µM; in the test with DMS 273 small cell lung, above 100 µM; with LXFL 529 NSCLC, above 100 µM; in the test with M19-MEL melanoma, 73.8 µM; in the test on RXF-631 renal, above 100 µM. The TGI in the test on SNB-78 CNS and in the test on XF 498 CNS was above 100 µM each time.

As to `COc1ccc(/C=C(\NC(=O)c2ccccc2)c2nc3ccccc3[nH]2)cc1`, the TGI in the test on DLD-1 colon was above 100 µM; with DMS 114 small cell lung, 90.6 µM; in the test on DMS 273 small cell lung, above 100 µM; with LXFL 529 NSCLC, above 100 µM; in the test with M19-MEL melanoma it was above 100 µM; with XF 498 CNS, 46.2 µM.

For the compound `Cc1ccc(SCN2CCCCC2)cc1` (tested in a mixture with another compound), in the test on MDA-N, the TGI was found to be 22.7 µM.

With `CC(=O)/C=C\C(=O)NNS(=O)(=O)c1ccc(C)cc1`, the TGI in the test on DLD-1 colon, in the test on DMS 273 small cell lung, in the test with LXFL 529 NSCLC, with M19-MEL melanoma, in the test with RXF-631 renal and in the test with SNB-78 CNS was above 100 µM each time. Moreover, the TGI in the test with XF 498 CNS was above 100 µM.

On to `Cn1c(N)cc(=O)nc1N`, for which the TGI in the test on MDA-N was above 100 µM.
